Bridge positions count the residues as written; N and C are the ends. Square brackets hold non-standard residues; d marks the D form. Ends that are not written are not given here. Peptide text beside a SMILES is read from it.
Legend:
[1] = Anti-obesity therapy, regular diet-fed old mice; parameters: species or system C57BL/6 mice; settings: mouse, in vivo
adipose tissue = assay: Histopathological analysis of tissues from treated mice; settings: mouse, in vivo
Description: (§1) Staining of formalin-fixed, paraffin-embedded mouse tissue sections was performed (Pasqualini & Rouslahti, 1996; Pasqualini et al., 2000). For phage-peptide immunolocalization, 10^10 TU of […] (SEQ ID NO:81)-phage or a control insertless phage was injected intravenously. Phage immunohistochemistry was performed using a rabbit anti-fd phage antibody (Sigma Chemicals, St. Louis, Mo.) used at 1:1,000 dilution and a secondary horseradish peroxidase (HRP)-conjugated antibody. Apoptosis was detected using standard TUNEL immunohistochemistry and an HRP-conjugated antibody. For in vivo peptide homing validation, stocks of 5-carboxyfluorescein (FITC)-conjugated […] (SEQ ID NO:81) or CARAC (SEQ ID NO:71) were chemically synthesized, cyclized using the terminal cysteines and HPLC-purified to >90% purity by Anaspec (San Jose, Calif.). Lyophilized peptides were dissolved in DMSO to a concentration of 20 mM. Ten μl of 1 mM peptide-FITC solution in PBS was injected 5 min prior to tissue extraction. For blood vessel localization, 10 μl of 2 mg/ml of rhodamine-conjugated lectin-I (RL-1102, Vector Laboratories, Burlingame, Calif.) was co-injected. All immunohistochemistry and FITC immunofluorescence images were captured using an Olympus IX70 microscope and digital camera setup (Melville, N.Y.).

[2] = Injection into genetically obese mice; type: in vivo; settings: not normal obese mice
DU145 tumors = assay: Competition of phage tumor localization by synthetic peptide; type: in vivo, nude mice; settings: 300 μg synthetic peptide co-injected with phage
Description: Competition studies with the […] (SEQ ID NO:83) peptide were performed to determine whether it could inhibit localization of phage bearing the same targeting sequence to DU145 tumors. Nude mice bearing the prostate tumor xenograft were simultaneously injected with 300 μg of synthetic […] (SEQ ID NO:83) peptide and 10^9 phage bearing the same targeting peptide sequence. A control tumor-bearing mouse was co-injected with fd insertless phage plus synthetic peptide. After 24 hours of circulation, tumor tissue samples were removed, washed, fixed, sectioned and stained as disclosed above. Co-administration of synthetic peptide with the same targeting sequence inhibited the ability of […] (SEQ ID NO:83)-phage to localize to prostate carcinoma tissue (not shown). No staining of prostate carcinoma with control fd-tet phage was observed (not shown)

HSP90α = target: T1, HSP90α (Homo sapiens, UniProt P07900); assay: Receptor purification on biotinylated peptide beads; type: binding; settings: MALDI analysis of excised bands
T1 construct: from tissue; host or cells: homogenate pellet of DU145 xenograft tumor grown in nude mice
Description: The prostate homing receptor for the B2 clone ([…] SEQ ID NO:83) was identified. Nude mice bearing DU145 xenografts were prepared and tissue samples from tumor, kidney and liver were removed. The tissue samples were immediately washed with PBS and three parts of homogenization buffer (PBS, 250 mM sucrose, 1 mM EDTA, protease inhibitors) was added to one part of tissue sample (about 4 ml). The tissue with homogenized with an electric grinder, then further homogenized with a dounce homogenizer. After sonication for 1 min on ice, the homogenate was centrifuged at 8000×g for 5 min. The supernatant was removed and the pellet was analyzed for receptor content.
The […] (SEQ ID NO:83) peptide was biotinylated and coupled to NeutrAvidin beads (Molecular Probes, Eugene, Oreg.) using standard methods. About 500 μg of biotinylated peptide was incubated with 1 ml of NeutrAvidin beads in binding buffer (0.5 M NaCl in PBS) overnight at 4° C. in a 2 ml column. The column was agitated using a rotator. Uncoupled peptides were removed and the beads washed three times with binding buffer and protease inhibitors. […]
The beads were washed four times with wash buffer (0.1% Triton X-100 in PBS with protease inhibitors) and the bound material eluted with 8 M guanidine HCl. Eluted proteins were analyzed on a 4-20% SDS-PAGE denaturing gel. […]

DU145 xenografts = assay: Phage localization by anti-phage staining of tissues; type: in vivo, nude mice; settings: 24 hour circulation
Description: To determine the specificity of the prostate tumor targeting peptides, 10^9 phage carrying the targeting peptide sequences […] (SEQ ID NO:83) and […] (SEQ ID NO:84) were injected into nude mice bearing DU145 xenografts. After 24 hour circulation, tissue samples were obtained from tumor and control organs (kidney, brain, lung and spleen). Tissue samples were washed immediately in DMAM and fixed in 10% formalin for 48 hours at room temperature. Thin sections were stained for phage using anti-phage antibody (1:500 dilution) and detected using the DAKO LSAB+ system. […] This may be due to the tendency of spleen tissue to trap phage and other foreign particles in general as part of the reticuloendothelial system.

[3] = system: MDA-MB-435 breast carcinoma; assay: Phage localization, separate study; settings: in vivo
[4] = system: IgGs isolated from the ascites of ovarian cancer patients; assay: Biopanning of CX7C phage library on IgGs from ovarian cancer ascites; type: binding, human
Description: To identify peptide epitopes specific for the anti-tumor immune response in ovarian cancer, a two-step screening procedure was followed (FIG. 34). The peptide library was initially pre-cleared on IVIg (intravenous immunoglobulins) to remove non-specific peptides. The pre-cleared peptide phage library was then incubated with IgGs isolated from the ascites of ovarian cancer patients. Phage bound to the ovarian cancer IgGs were recovered, amplified, and precipitated for subsequent rounds of biopanning. Following enrichment of a phage population that bound to ovarian cancer patient IgGs, individual phage clones were picked for sequence analysis to evaluate enrichment of the most consistently binding peptide sequences. Phage display biopanning was performed as described above.
Once the selection rounds were completed as determined by enrichment of phage capable of binding cancer patient IgGs over control at least 3 fold, sequencing and evaluation of the DNA phage insert were undertaken. To sequence the FUSE5 ssDNA directly, phage ssDNA was prepared using the StrataClean™ resin (Stratagene). StrataClean bead slurry was placed in a microcentrifuge tube containing phage. The mixture was vortexed strongly for 30 seconds and then incubated at room temperature for one minute. The tubes were centrifuged at 2,000×g for 1 minute. […]

[5] = system: antibodies isolated from the ascites of an ovarian cancer patient; assay: Competition of ascites antibody binding to immobilized GST fusion protein; parameters: species or system human
Description: Inhibition studies were performed in a similar manner as the binding assays described above with the exception that either GST fusion protein or synthetic peptide corresponding to the phage clone were added to the experiment. Where the peptide is mediating the interaction with the immunoglobulins then an inhibition of phage binding should be observed in a dose dependent manner versus the synthetic peptide. GST alone and a control peptide containing unrelated amino acids were tested at identical concentrations.
Peptide sequences of interest were expressed as GST fusion proteins (described above) and used to screen banked ascites and serum to determine the role of the humoral response against these markers. The purified GST-fusion proteins were used to coat a 96-well plate at 100 ng/well at room temperature (RT) or at 4° C. overnight. Following coating, the wells were emptied, rinsed, and non-specific sites were blocked with 200 μl 3% BSA/PBS at RT for 1-2 hours. Cancer patient ascites and/or sera were applied to each coated and blocked well at 1:100 dilution and then incubated at RT for 1 hour. […] Signals were detected in the presence of p-nitrophenyl phosphate by measuring OD405 at specific intervals to follow the course of color development. […]

white fat vasculature [6] = assay: Peptide and phage localization in tissues; type: in vivo; settings: intravenous, ob/ob mice
Description: as §1

white fat vasculature [7] = assay: Peptide localization in tissues; type: in vivo, C57BL/6 mice
Description: as §1

Q: With `CC(C)C[C@@H](NC(=O)[C@@H](CCCCN)NC(=O)CNC(=O)CNC(=O)[C@@H]1CSSC[C@H](N)C(=O)N[C@@H](CCCCN)C(=O)NCC(=O)NCC(=O)N[C@@H](CCCNC(=N)N)C(=O)N[C@@H](C)C(=O)N[C@@H](CCCCN)C(=O)N[C@@H](CC(=O)O)C(=O)N1)C(=O)N[C@H](C)C(=O)N[C@H](CCCCN)C(=O)N[C@H](CC(C)C)C(=O)N[C@H](C)C(=O)N[C@H](CCCCN)C(=O)N[C@H](CCCCN)C(=O)N[C@H](CC(C)C)C(=O)N[C@H](C)C(=O)N[C@H](CCCCN)C(=O)N[C@H](CC(C)C)C(=O)N[C@H](C)C(=O)N[C@H](CCCCN)C(=O)O` (H-CKGGRAKDCGG[dK][dL][dA][dK][dL][dA][dK][dK][dL][dA][dK][dL][dA][dK]-OH; disulfide 1-9) as the compound, how does the toxicity [1] read?
A: Its toxicity is “No toxicity”.

Q: What about the “abnormalities in other organs” value (adipose tissue) of the same compound?
A: The value was “No abnormalities in other organs”.

Q: And the mortality [2]?
A: The mortality was “occasionally observed to result in mortality”.

Q: With “YRCTLNSPFFWEDMTHECHA [listing 1 of 2 here]” as the compound, how does the “inhibition of phage localization to prostate carcinoma” value (DU145 tumors) read?
A: Its value is “inhibited”.

Q: And the receptor identified (HSP90α)?
A: The receptor identified was “HSP90α”.

Q: For “YRCTLNSPFFWEDMTHECHA [listing 2 of 2 here]”, which “anti-phage staining of control kidney, brain or lung” value (DU145 xenografts) is on record?
A: The value was “No staining was observed”.

Q: What about the “anti-phage staining of normal spleen” value (DU145 xenografts) of the same compound?
A: Its value is “low level of anti-phage staining”.

Q: And the “anti-phage staining of tumor” value (DU145 xenografts)?
A: The value was “very heavy staining”.

Q: What about the phage localization [3] of the same compound?
A: The phage localization was “no apparent localization”.

Q: What does the source list for CVPELGHEC?
A: share of the phage clones sequenced [4]: 86%; inhibition of antibody binding to immobilized GST-CVPELGHEC [5]: competitively inhibited in a dose-dependent fashion

Q: For “CKGGRAKDC-FITC: 5-carboxyfluorescein (FITC)-conjugated cyclized CKGGRAKDC (disulfide 1-9 (inferred); also: FITC conjugate, site not given here)”, which “localization to white fat vasculature” value (white fat vasculature [6]) is on record?
A: The value was “localized to and was internalized by cells of white adipose vasculature”.

Q: What about the “localization to white fat vasculature” value (white fat vasculature [7]; intravenous, C57BL/6 (leptin +/+) mice) of the same compound?
A: Its value is “specifically localized to blood vessels of subcutaneous and peritoneal white fat”.

Q: And the “co-localization with lectin-rhodamine in control tissue” value (white fat vasculature [7]; pancreatic tissue)?
A: Its value is “No such co-localization was observed”.

— patent publication US8507445B2, “Compositions and methods of use of targeting peptides for diagnosis and therapy of human cancer” (Board of Regents, The University of Texas System, priority 2002, dated 2013)
